Patent US12624068B2, “Exon skipping by peptide nucleic acid derivatives” (OliPass Corporation, priority 2016, dated 2026)
[C(1O2)] = modified PNA monomer acting as cytosine, C(pOq) type, 1O2; [A(6)] = modified PNA monomer acting as adenine, A(p) type, p=6; [G(6)] = modified PNA monomer acting as guanine, G(p) type, p=6; {Fethoc} = N-terminal Fethoc cap; {NH2} = C-terminal amide

Columns and labels:
[1] = tested on: 10-mer complementary DNA; assay: Tm between PNA derivatives and 10-mer complementary DNA (N- or C-terminal); format: binding; details: uncorrected
Procedure, shortened: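 Tm read by UV at 260 nm for duplexes formed by annealing (90 °C for a minute, slow cooling to ambient) of equimolar 4 μM PNA and complementary 10-mer DNA targeting N- or C-terminal, in 10 mM sodium phosphate, 100 mM NaCl, pH 7.16.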

[2] = tested on: full-length TYR mRNA; assay: TYR nested qPCR in human primary epidermal melanocytes; format: cell-based; details: 1 zM to 10 aM, 5 hours
Protocol: [Cell Culture & ASO Treatment] Primary epidermal melanocytes (Cat. Number PCS-200-013, ATCC) cells were maintained in Dermal Cell Basal Medium (Cat Number PCS-200-030, ATCC) supplemented with Adult Melanocyte Growth Kit Component (Cat. Number PCS-200-042, ATCC). Melanocytes grown in 60 mm culture dish containing 5 mL culture medium were treated with “TYR-ASO 1” at 0 zM (negative control), 1 zM, 100 zM, or 10 aM. (3 culture dishes per concentration) [RNA Extraction & cDNA Synthesis by One-step PCR] Following an incubation with “TYR-ASO 1” for 5 hours, total RNA was extracted using “RNeasy Mini Kit” (Cat. Number 74106, Qiagen) according to the manufacturer's instructions. […] NO: 147); and TYR-exon 5_reverse: (5'→3') […] [Nested PCR Amplification] […] NO: 149); and TYR-exon 3n_reverse: (5'→3') […] NO: 150)] against a Taqman probe [(5'→3') 5,6-[…] NO: 151)].

[3] = tested on: SNAP25 protein; assay: SNAP25 western blot in PC12 cells; format: cell-based, rat; details: 100 or 1,000 zM, 48 hours or 72 hours
Protocol: “SNAP-ASO 3” was evaluated for its ability to inhibit the expression of the SNAP25 protein in PC12 cells as follows.
PC12 cells were grown in 60 mm culture dish containing 5 mL culture medium, and treated with “SNAP-ASO 3” at 0 zM (negative control), 1 zM, 10 zM, 30 zM, 100 zM, 300 zM, 1 aM, 3 aM or 10 aM for 48 hours. There were 4 culture dishes of the negative control to compensate for potential technical artifacts during the western blot analysis.
[Cell Lysis] Then the cells were subjected to lysis on ice with 200 μL 1×RIPA buffer (Cat. Number 9806, Cell Signaling Tech) supplemented with 1% SDS and 1× proteinase inhibitors cocktail (cOmplete Mini, Roche). The lysates were collected in 1.5 mL e-tube, mixed with 100 μL 5× sample buffer, and boiled for 5 min.
[Western Blot] The lysates were subjected to electrophoretic separation on a 4-15% TGX-PAGE gradient gel (Cat. Number 456-1086, Bio-Rad) and then transferred onto a 0.45 μm PVDF membrane. The membrane was probed with an anti-SNAP25 antibody (Cat. Number S9684, Sigma) and an anti-β-actin antibody (Cat. Number A3845, Sigma).
“SNAP-ASO 1” was evaluated for its ability to inhibit the SNAP25 protein expression in PC12 cells as described in “SNAP25 Example 4”, unless noted otherwise. PC12 cells were treated with “SNAP-ASO 1” at 0 (negative control), 100 or 1,000 zM either for 48 hours or for 72 hours. […]

[4] = tested on: SNAP25 protein; assay: SNAP25 IHC in skin of mice after topical administration; format: in vivo, C57BL/6 mice; details: topical 1, 10 or 100 fM solution, twice per day Days 0 to 4
Protocol: “SNAP-ASO 1” is a 16-mer ASO fully complementary to the 3′ splice site spanning the junction of intron 6 and exon 7 in the mouse SNAP25 pre-mRNA read out from the mouse genomic DNA [accessed from NCBI Reference Sequence: NC_000068]. “SNAP-ASO 1” was evaluated for its ability to inhibit the expression of SNAP25 protein in the skin upon topical administration as follows.
[Hair Cut and Grouping] In Day 0, 8 female C57BL/6 mice (5 weeks old) were anesthetized with zoletil/rompun, and the hair in the back (ca 3 cm×4 cm) was cut with a clipper. The mice were randomly assigned into 4 groups, i.e., no ASO treatment group (negative control) and 3 treatment groups of 1 fM, 10 fM and 100 fM “SNAP-ASO 1”. (2 animals per group)
[Topical Administration] Topical solutions were prepared by serially diluting an aqueous stock solution of “SNAP-ASO 1” in 30% (v/v) aqueous ethanol supplemented with 3% (v/v) glycerin to 0, 1, 10 and 100 fM “SNAP-ASO 1”. […]
[SNAP25 IHC] Skin samples were cryo-sectioned and immunostained in series with a primary anti-SNAP25 antibody (Cat. Number ab41455, Abcam) at 1:200 dilution, with a secondary anti-IgG (Cat Number BA-1100, Vector) at 1:200 dilution, and then with Dylight 594-streptavidin (Cat Number SA-5594, Vector, CA, USA) at 1:200 dilution for red fluorescence tagging. […]

[5] = tested on: full-length SNAP25 mRNA; assay: SNAP25 nested qPCR in PC12 cells; format: cell-based, rat
Protocol: [Cell Culture & ASO Treatment] PC12 cells grown in 60 mm culture dish containing 5 mL culture medium were treated with “SNAP-ASO 3” at 0 (negative control), 10, 100 or 1,000 zM. (2 culture dishes per ASO concentration) [RNA Extraction & cDNA Synthesis by One-step RT-PCR] Following an incubation with “SNAP-ASO 3” for 42 hours, the cells were treated 100 μg/mL cycloheximide for another 6 hours to freeze the ribosomal translation. Then total RNA was extracted from cells using “Universal RNA Extraction Kit” (Cat. Number 9767, Takara) according to the manufacturer's instructions. […] NO: 130); and SNAP-exon 14_reverse: (5'→3') […] [Nested qPCR Amplification] […] NO: 132); and SNAP-exon 8q_reverse: (5'→3') […] The qPCR reaction was followed with a Taqman probe of [(5'→3') 5,6-[…] NO: 134)] targeting the junction of exon 7 and exon 8 in order to quantify the full-length SNAP25 mRNA.

[6] = tested on: melanogenesis in B16F10 cells; assay: Melanin content (melanogenesis) in B16F10 cells; format: cell-based, mouse; details: 1 to 1,000 aM, 24 hours
Protocol: “TYR-ASO 4” was evaluated for its ability to inhibit the melanogenesis in B16F10 cells as described below.
B16F10 cells grown in 60 mm culture dish containing 5 mL culture medium were treated either with “TYR-ASO 4” at 0 (negative control) or 1 to 1,000 aM, or with 10 or 100 μg/mL arbutin as a positive control. (2 culture dishes per dose) 24 hours later, the cells were subjected to lysis with 200 μL 1N NaOH. Each lysate was collected in 1.5 mL e-tube, and kept overnight at room temperature. The melanin content in each lysate was determined by absorbance at 475 nm on an ELISA reader. The experiment was repeated four times using cells at different passage. The four sets of the melanin content data were pooled for statistical analysis by student's t-test against the melanin content without treatment (negative control).

[7] = tested on: TYR protein; assay: TYR western blot in B16F10 cells; format: cell-based, mouse; details: 10 zM to 10 aM, 24 hours
Protocol: “TYR-ASO 4” was evaluated for its ability to inhibit the expression of TYR protein in B16F10 cells as described below.
B16F10 cells grown in 60 mm culture dish containing 5 mL culture medium were treated with “TYR-ASO 4” for 24 hours at 0 zM (negative control), 10 zM, 100 zM, 1 aM or 10 aM, and subjected to lysis with 200 μL 1× cell lysis buffer (Cat. No. 9803, Cell Signaling Tech) supplemented with 1× protease inhibitors cocktail (Cat. No. P8340, Sigma). 200 μL of each lysate was mixed with 100 μL 5× sample buffer, and boiled at 100° C. for 5 min. 20 μL of each lysate was subjected to electrophoretic separation on a 4-15% gradient TGX gel (Cat No. 456-1086, Bio-Rad), and protein transfer onto a 0.45 μm PVDF membrane. The membrane was probed with an anti-TYR antibody (Cat. No. 9319, Cell Signaling Tech) and an anti-3-actin antibody (Cat. No. a3845, Sigma).

[8] = tested on: mouse TYR pre-mRNA; assay: TYR nested PCR for exon skipping in B16F10 cells; format: cell-based; details: 1 to 1,000 aM, 5 hours
Protocol: “TYR-ASO 4” was evaluated for its ability to induce the skipping of the mouse TYR exon 2 in B16F10 melanoma cells as follows. “TYR-ASO 4” may serve as a good surrogate compound for “TYR-ASO 1” which is fully complementary to the human TYR pre-mRNA. [Cell Culture & ASO Treatment] B16F10 mouse melanoma cells (Cat. Number CRL-6475, ATCC) were maintained in DMEM (Dulbecco's modified Eagle's essential minimum medium) supplemented with 10% FBS, 1% streptomycin/penicillin, and 0.01 mg/ml bovine insulin. B16F10 cells grown in 60 mm culture dish containing 5 mL DMEM were incubated for 5 hours with “TYR-ASO 4” at 0 (negative control), 1, 10, 100 or 1000 aM. [RNA Extraction & cDNA Synthesis by One-step PCR] Total RNA was extracted using “Universal RNA Extraction Kit” (Cat. Number 9767, Takara) according to the manufacturer's instructions. […] NO: 142); and TYR-exon 4_reverse: (5'→3') […] [Nested PCR Amplification] […] NO: 144); and TYR-exon 4n_reverse: (5'→3') […] [Identification of Exon Skipping Products] The PCR products were subjected to electrophoretic separation on a 2% agarose gel. The bands of target size were collected and analyzed by Sanger Sequencing.

[9] = tested on: full-length TYR mRNA; assay: TYR nested qPCR in B16F10 cells; format: cell-based, mouse; details: 1 to 1,000 aM
Protocol: [Cell Culture & ASO Treatment] B16F10 cells grown in 60 mm culture dish containing 5 mL culture medium were treated with “TYR-ASO 4” at 0 (negative control), 1, 10, 100 or 1000 aM. (2 culture dishes per dose)
[RNA Extraction & cDNA Synthesis by One-step PCR] Total RNA was extracted and subjected to cDNA synthesis as described in “TYR Example 1”.
[Nested qPCR Amplification]
[Statistical Analysis] The nested qPCR experiment was repeated independently four times, and individual mRNA levels from each experiment were normalized against the mRNA level without ASO treatment. The mRNA levels obtained from all the 4 separate experiments were pooled for statistical analysis by student's t-test. Thus the number of RNA samples is 8 per ASO concentration.

| Substance | Tm Value, 10-mer DNA against C-Terminal [1] | Tm Value, 10-mer DNA against N-Terminal [1] | decrease of full-length TYR mRNA level (qPCR) [2] | expression of the SNAP25 protein (western blot) [3] | SNAP25 protein expression in the muscle layer of skin (IHC) [4] | decrease of full-length SNAP25 mRNA level (qPCR) ([5]; PC12 cells, 10 zM) | decrease of full-length SNAP25 mRNA level (qPCR) ([5]; PC12 cells, 100 zM) | decrease of full-length SNAP25 mRNA level (qPCR) ([5]; PC12 cells, 1,000 zM) | decrease of melanin content [6] | TYR protein level (western blot) [7] | TYR exon skipping by nested PCR [8] | decrease of full-length TYR mRNA level (qPCR) [9] |
| --- | --- | --- | --- | --- | --- | --- | --- | --- | --- | --- | --- | --- |
| Fethoc-CA(5)G-ACA(5)-ATC(1O2)-TG(6)T-A(5)-NH2 (antisense CAGACAATCTGTA; chemistry not fully specified) [TYR-ASO 1] | 73.0 °C | 78.0 °C | ~30% | – | – | – | – | – | – | – | – | – |
| Fethoc-A(6)TT-TG(6)T-TA(6)C-CC(1O2)T-GG(6)G-A(6)-NH2 (ATTTGTTACCCTGGGA; all peptide nucleic acid (PNA), [A(6)] at 1, 8, 16, [G(6)] at 5, 14, [C(1O2)] at 11, 5' {Fethoc}, 3' {NH2}; peptide nucleic acid written N to C) [SNAP-ASO 1] | – | – | – | considerably inhibited | gradually decreased as the dose was increased | ~50% | 40% | 70% | – | – | – | – |
| Fethoc-CA(5)A-A(5)TG-A(5)TC(1O2)-TG(6)T-G-NH2 (antisense CAAATGATCTGTG; chemistry not fully specified) [TYR-ASO 4] | 72.0 °C | 72.0 °C | – | – | – | – | – | – | ~15% | considerably higher in the lysates of the negative control | yielded essentially only the splice variant TYR mRNA lacking exons 2 and 3 | ~40% |
